Here are results for one compound from patent US20050170019A1, “Methods, compositions and devices for inducing stasis in cells” (Fred Hutchinson Cancer Research Center, priority 2003, published 2005).

The test system of data set [1] is C. elegans embryos. As to the kind of experiment: Cell biological analysis: arrest of embryogenesis (suspended animation) in carbon monoxide-based atmospheres. It counts as in vivo. From the text:
(§1) To test whether induced, reversible stasis could be achieved in C. elegans nematodes, 2-cell C. elegans embryos, L3 larvae or adult nematodes were collected and exposed to either an environment of effectively 100% CO, an environment of 100% N2, an environment comprising 500 ppm oxygen balanced with carbon monoxide, or to environments comprising 100, 500 or 1000 ppm oxygen balanced with nitrogen at room temperature. Nematodes were visualized using differential interference contrast microscopy (also known as Nomarski optics). Images were collected and analyzed using NIH image and Adobe Photoshop 5.5. Embryos are approximately 50 μm in length.
Cell biological analysis. To determine the extent of developmental progression in nitrogen-based atmospheres (Table 2), 2-cell embryos were exposed to various degrees of hypoxia as described above and were either immediately photographed, or photographed following a 12 hr recovery period in a humid chamber. To determine whether embryos arrested in carbon monoxide-based atmospheres, 2-cell embryos were aged in room air for two hours and were either photographed immediately or put into 100% carbon monoxide or 0.05 kPa O2/CO for 24 hours and photographed immediately following the exposure. In all cases, DIC microscopy was done by placing embryos under a cover slip on a thin 1% agarose pad and viewing on a Zeiss axioscope. Photographs were taken using RS Image and Adobe Photoshop software.

In the next data set the test system is human keratinocytes. As to the kind of experiment: Preservation of human skin in carbon monoxide: keratinocyte growth and colony formation. In kind it is cell-based. Here is the method:
Three human foreskins were obtained for this purpose. The foreskin tissue was preserved in keratinocyte growth medium (KGM) containing insulin, EGF (0.1 ng/ml), hydrocortisone ([…]) and bovine pituitary extract (approx. 50 micrograms/ml of protein). Foreskins were rinsed in PBS, and excess fatty tissue was removed. Each foreskin sample was divided into 2 equal pieces. Each piece was placed into a separate container containing a solution of PBS with 24 mg/ml of Dispase II (from Bacillus Polymyxa EC 3.4.24.4:Roche Diagnostics Corp., Indianapolis, Ind.). One container (containing a foreskin piece in PBS with Dispase II) was kept in a humid chamber in a fume hood. The other container (with the other half of the foreskin in PBS with Dispase II) was placed in the same fume hood in an environmental chamber perfused with humidified 100% CO. Both samples were maintained at room temperature for 24 hrs. Methods used to establish defined atmospheric conditions were identical to those used in Example 1.
Following the 24 hr exposure to normoxia or 100% CO, keratinocytes were isolated from the foreskins according to the method described by Boyce et al. (1983; 1985; each of which is incorporated herein by reference in its entirety). Briefly, the epidermis from each foreskin sample was removed to a fresh dish containing PBS. The epidermis was minced and homogenized prior to incubation in 3 ml of 0.05% Trypsin, 1 mM EDTA for 5 minutes, at room temperature, to separate basal cells from the epidermis. After incubation, 6 ml of 400 μg/ml (micrograms per ml) Soybean Trypsin Inhibitor, 1 mg/ml BSA was added and the samples were centrifuged at 900 RPM. The supernatant from each sample was discarded and the sample pellets were resuspended in 10 ml of KGM. Each sample was split into two 10 cm plates each of which contained 5 ml KGM and 100 μl of HEPES pH 7.3 (N-2-hydroxyethylpiperazine-N′-2-ethane sulfonic acid). The plates were incubated in a 37° C. incubator perfused with 95% room air, 5% carbon dioxide for five days.
Cells were inspected visually using an inverted phase contrast microscope. […] Quantitation of the number of viable keratinocytes as judged by colony formation was quantified for two of the three foreskins.

Data set [2] has as its system C. elegans embryos. Description: Viability of nematodes in carbon monoxide based atmospheres. In kind it is in vivo. Particulars: for viability (survival) to adulthood: 0.25 kPa O2/CO.
Source text: To achieve specific atmospheric conditions the following apparatus was used: a glass syringe barrel having a tip with a locking device such as a LUER-LOK with the large opening of the barrel sealed with a custom-machined steel and rubber fitting to make an airtight seal was locked to via locking device to the inlet port of an environmental chamber having an inlet and an outlet port each fitted with a locking devices such as a LUER-LOK fitting. A defined gas was humidified and provided to the environmental chamber by first venting the gas from a compressed tank (Byrne Specialty Gas, Seattle, Wash.) through a gas washing bottle (500 ml Kimex) filled with double distilled water. The gas washing bottle was connected to the environmental chamber past a gas-flow meter. A gas flow meter was used to provide a regulated 70 cc/min flow through the environmental chamber throughout the 24 hr incubation.
as §1
Environmental chambers and apparatuses. Oxygen deprivation experiments were carried out using a custom atmospheric chamber designed by W. Van Voorhies (Van Voorhies et al., 2000). The chamber is a 30 mL glass syringe (Fisher #14-825-10B) fitted with a custom steel stopper that is lined with two viton o-rings to ensure a tight seal. The stopper is bored through and has a steel lure lock on the exterior face so that a hose carrying compressed gas can be attached. A defined gas mixture is delivered to the chamber at a constant pressure and flow rate from compressed tanks by passing first through a rotometer (Aalborg, flow-tube number 032-41ST) or mass flow controller (Sierra Instruments #810) to monitor flow rate and then through a 500 ml gas washing bottle (Fisher #K28220-5001) containing 250 ml water to hydrate the gas. ¼” OD nylon (Cole-Parmer #P-06489-06) or FEP (Cole-Parmer #A-06450-05) tubing was used and connections between tubing and the regulators and between the tubing and the rotometers were made with brass John-Guest-type fittings (Byrne Gas). All other connections were made with either microflow quick-connect fittings (Cole-Parmer #A-06363-57, #A-06363-52) or standard lure fittings (Cole-Parmer #A-06359-37, #A-06359-17).
Viability of nematodes in hypoxia. […] Log-phase, adult C. elegans were picked into a drop of sterile water containing 100 μg/ml ampicillin, 15 μg/ml tetracycline and 200 μg/ml streptomycin on a glass plate. Adults were chopped with a razor blade and 2-cell embryos were picked using a mouth pipet. 30-60 2-cell embryos were transferred to a small glass boat (custom made to fit atmospheric chambers, Avalon Glass Works, Seattle Wash.) filled with 3 ml of 1% agarose in M9. Boats were then placed into a humid chamber for 2 hours to allow the embryos to age and then placed into the environmental chamber. The environmental chambers were continuously perfused at room temperature with either pure N2 (grade 4.5), 100 ppm O2/N2, 500 ppm O2/N2, 1000 ppm O2/N2, or 5000 ppm O2/N2 at 70 cc/min for 24 hrs. Following exposure, agarose chunks containing the embryos were cut out of the boat and placed with embryos facing up onto a medium-sized NGM plate seeded with E. coli (OP50). Embryos were scored for hatching 24 hours after exposure and hatched L1's were transferred to the surface of the NGM plate and followed to adulthood. Animals that could not be accounted for were dropped from the total. […]

The next data set concerns humans. Conditions: cited from earlier work.

Read-outs that look alike come from different tables or passages of the source.

In the case of `[C-]#[O+]` [carbon monoxide], the embryogenesis during exposure result in the data set with C. elegans embryos [1] (embryos, 0.05 kPa O2 balanced with carbon monoxide) is on record as “arrested embryogenesis”. In the data set with C. elegans embryos [1] (embryos, 101 kPa CO), the “progression through embryogenesis during exposure” value is “did not progress through embryogenesis”. In the data set on C. elegans embryos [1] (nematodes, 100% carbon monoxide), the “induction of suspended animation” value is “induced reversible suspended animation”. Also, the suspended animation result with C. elegans embryos [1] (wild-type and hif-1(ia04) embryos, 0.25 kPa O2 balanced with carbon monoxide) is “entered into suspended animation”. The Total colonies with human keratinocytes (Foreskin 1, 100% CO 24 hrs) is 542 colonies (many of which were very; in the data set on human keratinocytes (Foreskin 2, 100% CO 24 hrs) it was 780 colonies (many of which were very. For the same compound, the “survival of human keratinocytes (FIG. 1)” value with human keratinocytes (exposure to 100% CO) was “survive”. Further, the “survival of skin cells in CO relative to room air” value in the data set on human keratinocytes (human skin, 100% CO, after 24 hrs) stood at 100 fold. Also, the “growth of keratinocyte populations (visual inspection)” value with human keratinocytes (three foreskins, 24 hr 100% CO at room temperature, then five days culture) was “significant growth”. Also, the “viability (survival) to adulthood” value is 78.7% with C. elegans embryos [2] (N2 (wild-type) embryos, 24 hrs); 78.7% ± 21.9 with C. elegans embryos [2] (N2 (wild-type) embryos, 24 hrs, listed as CO); 84.0% in the data set with C. elegans embryos [2] (hif-1(ia04) embryos, 24 hrs); 83.9% ± 13.8 in the data set on C. elegans embryos [2] (hif-1(ia04) embryos, 24 hrs, listed as CO). The compound further returned a viability to adulthood in the data set on C. elegans embryos [2] (embryos, 0.05 kPa O2 balanced with carbon monoxide, 24 hours) of 96.2%. The survival to adulthood in the data set with C. elegans embryos [2] (embryos, 101 kPa CO (100% CO), 24 hrs) is given as 81.5%. Further, the lethality result is “not lethal” in the data set on C. elegans embryos [2] (nematodes, 100% carbon monoxide, room temperature, 24 hr) and “can expire” in the data set on humans (around 1000 ppm, exposure for more than around 1-2 minutes, an organism). Besides, in the data set with C. elegans embryos [2] (nematodes, 500 ppm oxygen balanced with carbon monoxide), the “suspended animation and survival” value was “entered into suspended animation and survived”. Moreover, in the data set with C. elegans embryos [2] (wild-type embryos, 24 hours, 0.05 kPa O2/CO versus 0.05 kPa O2/N2), the “protection against hypoxia (FIG. 3)” value was “protects against hypoxia”. For the same compound, the symptoms entry was “no symptoms” with humans (50 parts per million (ppm)); “slight headache” in the data set with humans (200 ppm, within two-three hours); “frontal headache” in the data set on humans (400 ppm, within one to two hours); “dizziness, nausea, and/or convulsions within 45 minutes, and render the subject insensible within two hours” in the data set on humans (800 ppm).
